{"source": "patent US3962256A", "about": "“2-Aminomethyl benzimidazole derivatives” (Delalande S.A., priority 1973, dated 1976)", "key": {"[1]": {"tested_on": "gastric ulcers, provoked in a rat by tying of the pylorus (Shay ulcers)", "assay": "Antiulcerous: reduction of Shay ulcers (tying of the pylorus)", "type": "in vivo", "settings": "50 mg/Kg/i.d.", "experimental": "The compounds of formula (I) administered by intraduodenal means reduce the extent of gastric ulcers, provoked in a rat by tying of the pylorus (Shay ulcers).\nBy way of example, there is listed in the following Table IX, the results obtained by the administrations of 50 mg/Kg/i.d. of different compounds of formula (I)."}, "[2]": {"assay": "Lethal doses / percentage mortality, oral", "type": "in vivo", "settings": "2 000 mg/Kg/p.o., 2000 mg/kg", "text": "As a result of a comparison between the pharmacologically active doses mentioned above and the lethal doses listed in the following Table XII, the difference between said doses is sufficiently great to permit the utilisation of the compounds of formula (I) in therapeutics."}, "[3]": {"tested_on": "explorations in the escape enclosure", "assay": "Sedative: reduction of number of explorations in the escape enclosure", "type": "in vivo", "settings": "100 mg/Kg/p.o., mouse", "experimental": "The compounds of formula (I), administered by oral means to the mouse, reduce the number of explorations in the escape enclosure.\nBy way of example, the following Table VIII lists the results obtained by the administration of 100 mg/Kg/p.o. of different compounds of formula (I)."}, "[4]": {"tested_on": "oedema caused by the sub-plantar injection of carraghenin", "assay": "Antiinflammatory: reduction of sub-plantar oedema caused by carraghenin, rat", "type": "in vivo", "settings": "100 mg/Kg/p.o.", "experimental": "These properties are shown by a diminution of the local oedema caused by the sub-plantar injection of a phlogogenic agent, such as carraghenin, in the rat following the oral administration of compounds of formula (I).\nThe following Table VI lists, by way of example, the percentage reduction of the oedems caused by the sub-plantar injection of carraghenin, resulting from the administration of 100 mg/Kg/p.o. of different compounds of formula (I)."}, "[5]": {"tested_on": "painful stretchings caused by the intraperitoneal injection of acetic acid", "assay": "Analgesic: reduction of painful stretchings caused by intraperitoneal acetic acid, oral, mouse", "type": "in vivo", "settings": "100 mg/Kg/p.o.", "experimental": "The compounds of formula (I), administered by oral means to the mouse, are capable of reducing the number of painful stretchings caused by the intraperitoneal injection of acetic acid.\nBy way of example, the following Table III lists the results obtained by administration of 100 mg/Kg/p.o. of different compounds of formula (I)."}, "[6]": {"tested_on": "bronchoconstriction provoked in the guinea-pig by acetylcholine", "assay": "Antibronchoconstrictive and anticholinergic: bronchoconstriction by intravenous acetylcholine, Konzett method", "type": "in vivo", "settings": "100 mg/kg/i.d.", "text": "Injected by intraveinous or intraduodenal means, the compounds of formula (I) are capable of opposing the bronchoconstriction provoked in the guinea-pig by the itraveinous injection of acetylcholine by the Konzett method.\nBy way of example, the following Table VII lists the results obtained by the administration of different compounds of formula (I)"}, "[7]": {"tested_on": "rat suffering from high blood pressure", "assay": "Antihypertensive: return of systolic arterial pressure to normal in rats with high blood pressure", "type": "in vivo", "text": "The compounds of formula (I), administered by oral means to a rat suffering from high blood pressure, are capable of lowering the systolic arteriel pressure.\nBy way of example, there is provided in the following Table IV the results obtained by administration of different compounds of formula (I)."}, "[8]": {"tested_on": "volume of urine emitted", "assay": "Diuretic: augmentation of urinary elimination", "type": "in vivo", "settings": "25 mg/Kg/p.o., mouse, 6 hours", "experimental": "The compounds of formula (I), administered by oral means to the mouse, simultaneously with a volume of 1 ml. of an isotonic solution of sodium chloride per 25 g of the corporeal weight of the mouse, are capable of provoking an augmentation of the volume of urine emitted by reference to control animals, the volume being measured for 6 hours following administration.\nBy way of example, the following Table XI lists the results obtained by the administration of 25 mg/Kg/p.o. of different compounds of formula (I)."}, "[9]": {"tested_on": "isolated heart of a guinea-pig", "assay": "Vasodilatatory: coronary flow of isolated heart", "settings": "1 μg/ml in perfusion liquid", "experimental": "The compounds of formula (I) are capable of augmenting the flow of the coronary vessels of the isolated heart of a guinea-pig when said compounds are added in the perfusion liquid of said organ.\nBy way of example, there can be found in the following Table X, the percentage augmentation of the flow of the isolated heart of a guinea-pig by adding different compounds of formula (I) to the perfusion liquid, in a concentration of 1 μg/ml."}, "[10]": {"tested_on": "ventricular fibrillations provoked by the inhalation of chloroform", "assay": "Antiarythmic: protection against ventricular fibrillations provoked by inhalation of chloroform", "type": "in vivo", "settings": "i.p., mouse", "text": "Administered by intraperitoneal means, the compounds of formula (I) are capable of protecting the mouse against the ventricular fibrillations provoked by the inhalation of chloroform."}, "[11]": {"tested_on": "gastric secretion measured after Shay ligature", "assay": "Gastric antisecretory: reduction of gastric secretion after Shay ligature, rat", "type": "in vivo", "settings": "50 mg/Kg/i.d.", "experimental": "Administered by intraduodenal means to a rat, the compounds of formula (I) are capable of reducing the gastric secretion measured after Shay ligature.\nBy way of example, the following Table V gives the results obtained by administration of 50 mg/Kg/i.d. of different compounds of formula (I)."}}, "data": [{"smiles": "O=C(CCn1c(CN2CCOCC2)nc2ccccc21)c1ccc(Cl)cc1", "note": "[72 359]", "values": [{"measurement": "Percentage reduction of Shay ulcers", "setting": "[1]", "result": 35, "unit": "%"}, {"measurement": "Percentage mortality", "setting": "[2]", "result": 0, "unit": "%"}]}, {"smiles": "COc1ccc(C(=O)CCn2c(CN3CCCCC3)nc3ccccc32)cc1OC", "note": "[72 377]", "values": [{"measurement": "Percentage reduction of number of explorations in the escape enclosure", "setting": "[3]", "result": 30, "unit": "%"}, {"measurement": "Percentage reduction of Shay ulcers", "setting": "[1]", "result": 55, "unit": "%"}, {"measurement": "Percentage mortality", "setting": "[2]", "result": 0, "unit": "%"}]}, {"smiles": "CCN(CC)Cc1nc2ccccc2n1CCC(=O)c1ccc(Cl)cc1", "note": "[72 390]", "values": [{"measurement": "Percentage reduction of sub-plantar oedema", "setting": "[4]", "result": 60, "unit": "%"}, {"measurement": "Percentage reduction of Shay ulcers", "setting": "[1]", "result": 40, "unit": "%"}, {"measurement": "Percentage mortality", "setting": "[2]", "result": 0, "unit": "%"}]}, {"smiles": "COc1ccc(C(=O)CCn2c(CN3CCOCC3)nc3ccccc32)cc1OC", "note": "[72 391]", "values": [{"measurement": "Percentage reduction of number of painful stretchings", "setting": "[5]", "result": 60, "unit": "%"}, {"measurement": "Percentage inhibition of bronchoconstriction", "setting": "[6]", "result": 100, "unit": "%"}, {"measurement": "Percentage reduction of number of explorations in the escape enclosure", "setting": "[3]", "result": 50, "unit": "%"}, {"measurement": "Percentage mortality", "setting": "[2]", "result": 0, "unit": "%"}]}, {"smiles": "COc1cc(C(=O)CCn2c(CN3CCCC3)nc3ccccc32)cc(OC)c1OC", "note": "[72 414]", "values": [{"measurement": "Percentage of rats with high blood pressure whose systolic arteriel pressure is returned to normal", "setting": "[7]; 150 mg/Kg/p.o.", "result": 75, "unit": "%"}, {"measurement": "Percentage inhibition of bronchoconstriction", "setting": "[6]", "result": 50, "unit": "%"}]}, {"smiles": "Cc1ccc(C(=O)CCn2c(CN3CCOCC3)nc3ccccc32)c(C)c1", "note": "[72 447]", "values": [{"measurement": "Percentage reduction of sub-plantar oedema", "setting": "[4]", "result": 40, "unit": "%"}, {"measurement": "Percentage inhibition of bronchoconstriction", "setting": "[6]", "result": 50, "unit": "%"}, {"measurement": "Percentage reduction of Shay ulcers", "setting": "[1]", "result": 35, "unit": "%"}, {"measurement": "Percentage augmentation of urinary elimination", "setting": "[8]", "result": 70, "unit": "%"}, {"measurement": "Percentage mortality", "setting": "[2]", "result": 0, "unit": "%"}]}, {"smiles": "CCCCOc1ccc(C(=O)CCn2c(CN3CCCCC3)nc3ccccc32)cc1", "note": "[72 464]", "values": [{"measurement": "Percentage reduction of number of explorations in the escape enclosure", "setting": "[3]", "result": 30, "unit": "%"}, {"measurement": "Percentage mortality", "setting": "[2]", "result": 0, "unit": "%"}]}, {"smiles": "Cc1ccc(C(=O)CCn2c(CN3CCOCC3)nc3ccccc32)cc1", "note": "[72 478]", "values": [{"measurement": "Percentage augmentations of flow of isolated heart of a guinea-pig", "setting": "[9]", "result": 50, "unit": "%"}, {"measurement": "Percentage mortality", "setting": "[2]", "result": 0, "unit": "%"}]}, {"smiles": "CN(C)Cc1nc2ccccc2n1CCC(=O)c1ccc(Cl)cc1", "note": "[72 479]", "values": [{"measurement": "Percentage of rats with high blood pressure whose systolic arteriel pressure is returned to normal", "setting": "[7]; 200 mg/Kg/p.o.", "result": 50, "unit": "%"}, {"measurement": "Percentage reduction of Shay ulcers", "setting": "[1]", "result": 30, "unit": "%"}, {"measurement": "Percentage augmentations of flow of isolated heart of a guinea-pig", "setting": "[9]", "result": 80, "unit": "%"}, {"measurement": "DE 50", "setting": "[10]", "result": 200, "unit": "mg/Kg/i.p."}, {"measurement": "Percentage mortality", "setting": "[2]", "result": 0, "unit": "%"}]}, {"smiles": "O=C(CCn1c(CN2CCCCC2)nc2ccccc21)c1ccc(F)cc1", "note": "[72 487]", "values": [{"measurement": "Percentage reduction of number of painful stretchings", "setting": "[5]", "result": 80, "unit": "%"}, {"measurement": "Percentage reductions in volume of gastric secretion", "setting": "[11]", "result": 40, "unit": "%"}, {"measurement": "Percentage inhibition of bronchoconstriction", "setting": "[6]", "result": 60, "unit": "%"}]}, {"smiles": "O=C(CCn1c(CN2CCCCCC2)nc2ccccc21)c1ccc(F)cc1", "note": "[72 488]", "values": [{"measurement": "Percentage reduction of sub-plantar oedema", "setting": "[4]", "result": 50, "unit": "%"}, {"measurement": "Percentage reduction of Shay ulcers", "setting": "[1]", "result": 25, "unit": "%"}, {"measurement": "DE 50", "setting": "[10]", "result": 200, "unit": "mg/Kg/i.p."}, {"measurement": "Percentage mortality", "setting": "[2]", "result": 0, "unit": "%"}]}, {"smiles": "COc1ccc(C(=O)CCn2c(CN(C)C)nc3ccccc32)cc1OC", "note": "[72 490]", "values": [{"measurement": "Percentage reduction of Shay ulcers", "setting": "[1]", "result": 30, "unit": "%"}, {"measurement": "Percentage augmentations of flow of isolated heart of a guinea-pig", "setting": "[9]", "result": 140, "unit": "%"}]}, {"smiles": "O=C(CCn1c(CN2CCCCC2)nc2ccccc21)c1ccccc1", "note": "[72 491]", "values": [{"measurement": "Percentage reduction of number of painful stretchings", "setting": "[5]", "result": 65, "unit": "%"}, {"measurement": "Percentage of rats with high blood pressure whose systolic arteriel pressure is returned to normal", "setting": "[7]; 200 mg/Kg/p.o.", "result": 50, "unit": "%"}, {"measurement": "Percentage mortality", "setting": "[2]", "result": 0, "unit": "%"}]}, {"smiles": "O=C(CCn1c(CN2CCCC2)nc2ccccc21)c1ccccc1", "note": "[72 493]", "values": [{"measurement": "Percentage reductions in volume of gastric secretion", "setting": "[11]", "result": 25, "unit": "%"}]}, {"smiles": "O=C(CCn1c(CN2CCOCC2)nc2ccccc21)c1ccccc1", "note": "[72 494]", "values": [{"measurement": "Percentage reductions in volume of gastric secretion", "setting": "[11]", "result": 25, "unit": "%"}, {"measurement": "Percentage reduction of sub-plantar oedema", "setting": "[4]", "result": 40, "unit": "%"}, {"measurement": "mortality", "setting": "[2]; in vivo, po", "result": 0, "unit": "%"}]}]}
